pIC50: −log10 of the molar value.
Target: T1, human TREK-1 (Homo sapiens, UniProt O95069)
T1 construct: expressed in transfected cells
T1 sequence (O95069 1-426): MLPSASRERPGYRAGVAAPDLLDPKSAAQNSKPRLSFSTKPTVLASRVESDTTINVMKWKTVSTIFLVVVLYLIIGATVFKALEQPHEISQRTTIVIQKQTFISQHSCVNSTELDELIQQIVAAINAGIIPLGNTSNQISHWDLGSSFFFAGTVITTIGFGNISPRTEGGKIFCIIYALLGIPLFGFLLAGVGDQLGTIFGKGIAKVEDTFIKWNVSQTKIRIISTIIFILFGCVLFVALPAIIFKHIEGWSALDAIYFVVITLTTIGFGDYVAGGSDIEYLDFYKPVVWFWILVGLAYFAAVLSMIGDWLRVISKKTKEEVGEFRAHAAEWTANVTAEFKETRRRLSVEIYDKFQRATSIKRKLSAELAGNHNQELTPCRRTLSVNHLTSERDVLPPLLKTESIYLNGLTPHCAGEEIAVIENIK
Test: TREK-1 Thallium (Tl+) flux assay, Method 1
Type: cell-based
Settings: TREK-1 Thallium (Tl+) flux assay; values without footnote *12 are Method 1
Summary of the method: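 Readout: Thallos fluorescence ratio, taken 25 s post-thallium relative to the pre-thallium baseline average, then converted to % inhibition. Cells were CHO-K1 stably expressing human TREK-1, dye-loaded and exposed to test compound (vehicle 0.3% DMSO) for 10 min prior to thallium stimulation.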

Row | Compound | pIC50
1 | CC(C)(C)OC(=O)N1CCC(Cn2ncc(Cl)c2C(=O)Nc2ncc(C#Cc3ccccc3)cc2F)CC1 [Compound 142, tert-butyl 4-((4-chloro-5-((3-fluoro-5-(phenylethynyl)pyridin-2-yl)carbamoyl)-1H-pyrazol-1-yl)methyl)piperidine-1-carboxylate] | 6.64
2 | Cc1cc(C#Cc2cccc(F)c2)cnc1NC(=O)c1c(Cl)cnn1C1CCN(C(=O)C2CC2)CC1 [Compound 143, 4-chloro-1-(1-(cyclopropanecarbonyl)piperidin-4-yl)-N-(5-((3-fluorophenyl)ethynyl)-3-methylpyridin-2-yl)-1H-pyrazole-5-carboxamide] | 6.64
3 | CC(C)C(=O)N1CCC(CCn2ncc(Cl)c2C(=O)Nc2ncc(C#Cc3ccccc3)cc2F)CC1 [Compound 144, 4-chloro-N-(3-fluoro-5-(phenylethynyl)pyridin-2-yl)-1-(2-(1-isobutyrylpiperidin-4-yl)ethyl)-1H-pyrazole-5-carboxamide] | 6.64
4 | CC(C)C(=O)N1CCOC(Cn2ncc(Cl)c2C(=O)Nc2ncc(C#Cc3ccccc3)cc2F)C1 (stereo not drawn) [Compound 145, 4-chloro-N-(3-fluoro-5-(phenylethynyl)pyridin-2-yl)-1-((4-isobutyrylmorpholin-2-yl)methyl)-1H-pyrazole-5-carboxamide] | 6.64
5 | CC(C)C(=O)N1CC[C@@H](Cn2ncc(Cl)c2C(=O)Nc2ncc(C#Cc3ccccc3)cc2F)[C@@H](F)C1 [Compound 146, 4-chloro-1-(((3R,4S)-3-fluoro-1-isobutyrylpiperidin-4-yl)methyl)-N-(3-fluoro-5-(phenylethynyl)pyridin-2-yl)-1H-pyrazole-5-carboxamide] | 6.64
6 | Cc1cc(C#Cc2ccccc2)cnc1NC(=O)c1c(Cl)cnn1C[C@H]1CCOC1 [Compound 147, (R)-4-chloro-N-(3-methyl-5-(phenylethynyl)pyridin-2-yl)-1-((tetrahydrofuran-3-yl)methyl)-1H-pyrazole-5-carboxamide] | 6.62
7 | O=C(Nc1ncc(C#Cc2ccccc2)cc1F)c1c(Cl)cnn1C[C@@H]1CCOC1 [Compound 148, (S)-4-chloro-N-(3-fluoro-5-(phenylethynyl)pyridin-2-yl)-1-((tetrahydrofuran-3-yl)methyl)-1H-pyrazole-5-carboxamide] | 6.62
8 | Cc1cc(C#Cc2ccccc2)cnc1NC(=O)c1c(Cl)cnn1C1CCN(C(=O)C2CC2)CC1 [Compound 149, 4-chloro-1-(1-(cyclopropanecarbonyl)piperidin-4-yl)-N-(3-methyl-5-(phenylethynyl)pyridin-2-yl)-1H-pyrazole-5-carboxamide] | 6.62
9 | CC(=O)N1CCC(Cn2ncc(Cl)c2C(=O)Nc2ncc(C#Cc3cccc(F)c3)cc2C)CC1 [Compound 150, 1-((1-acetylpiperidin-4-yl)methyl)-4-chloro-N-(5-((3-fluorophenyl)ethynyl)-3-methylpyridin-2-yl)-1H-pyrazole-5-carboxamide] | 6.62
10 | Cc1cc(C#Cc2ccc(F)cc2)cnc1NC(=O)c1c(Cl)cnn1C1CCN(C(=O)C(C)C)CC1 [Compound 151, 4-chloro-N-(5-((4-fluorophenyl)ethynyl)-3-methylpyridin-2-yl)-1-(1-isobutyrylpiperidin-4-yl)-1H-pyrazole-5-carboxamide] | 6.62
11 | Cc1cc(C#Cc2cccc(F)c2)cnc1NC(=O)c1c(Cl)cnn1C1CCN(C(=O)C(C)C)CC1 [Compound 152, 4-chloro-N-(5-((3-fluorophenyl)ethynyl)-3-methylpyridin-2-yl)-1-(1-isobutyrylpiperidin-4-yl)-1H-pyrazole-5-carboxamide] | 6.62
12 | CC(=O)N1CCC(CCn2ncc(Cl)c2C(=O)Nc2ncc(C#Cc3ccccc3)cc2C)CC1 [Compound 153, 1-(2-(1-acetylpiperidin-4-yl)ethyl)-4-chloro-N-(3-methyl-5-(phenylethynyl)pyridin-2-yl)-1H-pyrazole-5-carboxamide] | 6.62
13 | CC(=O)N1CC[C@H](n2ncc(Cl)c2C(=O)Nc2ncc(C#Cc3ccccc3)cc2F)[C@@H](F)C1 [Compound 154, 1-((3S,4S)-1-acetyl-3-fluoropiperidin-4-yl)-4-chloro-N-(3-fluoro-5-(phenylethynyl)pyridin-2-yl)-1H-pyrazole-5-carboxamide] | 6.62
14 | Cc1cc(C#Cc2ccccc2)cnc1NC(=O)c1c(Cl)cnn1CC1(F)CCN(C(=O)OC(C)(C)C)CC1 [Compound 155, tert-butyl 4-((4-chloro-5-((3-methyl-5-(phenylethynyl)pyridin-2-yl)carbamoyl)-1H-pyrazol-1-yl)methyl)-4-fluoropiperidine-1-carboxylate] | 6.62
15 | CC(=O)N[C@H]1C[C@H](n2ncc(Cl)c2C(=O)Nc2ncc(C#Cc3ccccc3)cc2C)C1 [Compound 156, 1-(trans-3-acetamidocyclobutyl)-4-chloro-N-(3-methyl-5-(phenylethynyl)pyridin-2-yl)-1H-pyrazole-5-carboxamide] | 6.62
16 | Cc1cc(C#Cc2ccccc2)cc(F)c1NC(=O)c1c(Cl)cnn1[C@H]1CCOC1 [Compound 157, (S)-4-chloro-N-(2-fluoro-6-methyl-4-(phenylethynyl)phenyl)-1-(tetrahydrofuran-3-yl)-1H-pyrazole-5-carboxamide] | 6.60
17 | CCNC(=O)N1CCC(n2ncc(Cl)c2C(=O)Nc2ncc(C#Cc3ccccc3)cc2F)CC1 [Compound 158, 4-(4-chloro-5-((3-fluoro-5-(phenylethynyl)pyridin-2-yl)carbamoyl)-1H-pyrazol-1-yl)-N-ethylpiperidine-1-carboxamide] | 6.60
18 | Cc1cc(C#Cc2ccccc2)cnc1NC(=O)c1c(Cl)cnn1C[C@@H]1CCOC1 [Compound 160, (S)-4-chloro-N-(3-methyl-5-(phenylethynyl)pyridin-2-yl)-1-((tetrahydrofuran-3-yl)methyl)-1H-pyrazole-5-carboxamide] | 6.59
19 | O=C(Nc1c(F)cc(C#Cc2ccccc2)cc1F)c1c(Cl)cnn1C[C@@H]1CCOC1 [Compound 161] | 6.59
20 | O=C(Nc1c(F)cc(C#Cc2ccccc2)cc1F)c1c(Cl)cnn1C[C@H]1CCOC1 [Compound 162, (R)-4-chloro-N-(2,6-difluoro-4-(phenylethynyl)phenyl)-1-((tetrahydrofuran-3-yl)methyl)-1H-pyrazole-5-carboxamide] | 6.59
21 | Cc1cc(C#Cc2ccccc2)cnc1NC(=O)c1c(Cl)cnn1C1CCN(S(C)(=O)=O)CC1 [Compound 163, 4-chloro-N-(3-methyl-5-(phenylethynyl)pyridin-2-yl)-1-(1-(methylsulfonyl)piperidin-4-yl)-1H-pyrazole-5-carboxamide] | 6.59
22 | CC(=O)N1CCC(n2ncc(Cl)c2C(=O)Nc2ncc(C#Cc3ccccc3F)cc2C)CC1 [Compound 164, 1-(1-acetylpiperidin-4-yl)-4-chloro-N-(5-((2-fluorophenyl)ethynyl)-3-methylpyridin-2-yl)-1H-pyrazole-5-carboxamide] | 6.59
23 | Cc1cc(C#Cc2ccc(F)cc2)cnc1NC(=O)c1c(Cl)cnn1[C@H]1CC[C@@H](NC(=O)C2CC2)CC1 [Compound 165, 4-chloro-1-(cis-4-(cyclopropanecarboxamido)cyclohexyl)-N-(5-((4-fluorophenyl)ethynyl)-3-methylpyridin-2-yl)-1H-pyrazole-5-carboxamide] | 6.59
24 | CC(=O)N1CCC(C)(Cn2ncc(Cl)c2C(=O)Nc2ncc(C#Cc3ccccc3)cc2C)CC1 [Compound 166, 1-((1-acetyl-4-methylpiperidin-4-yl)methyl)-4-chloro-N-(3-methyl-5-(phenylethynyl)pyridin-2-yl)-1H-pyrazole-5-carboxamide] | 6.59
25 | Cc1cc(C#Cc2ccccc2)cnc1NC(=O)c1c(Cl)cnn1CCCC#N [Compound 167, 4-chloro-1-(3-cyanopropyl)-N-(3-methyl-5-(phenylethynyl)pyridin-2-yl)-1H-pyrazole-5-carboxamide] | 6.57
26 | N#CC1(Cn2ncc(Cl)c2C(=O)Nc2c(F)cc(C#Cc3ccccc3)cc2F)CC1 [Compound 168, 4-chloro-1-((1-cyanocyclopropyl)methyl)-N-(2,6-difluoro-4-(phenylethynyl)phenyl)-1H-pyrazole-5-carboxamide] | 6.57
27 | Cc1cc(C#Cc2ccccc2)cnc1NC(=O)c1c(Cl)cnn1C1CCN(C(=O)C(C)C)CC1 [Compound 169] | 6.57
28 | CC(C)(C)OC(=O)N1C[C@H]2C[C@H](n3ncc(Cl)c3C(=O)Nc3ncc(C#Cc4ccccc4)cc3F)C[C@H]2C1 [Compound 170, tert-butyl (3aR,5s,6aS)-5-(4-chloro-5-{[3-fluoro-5-(phenylethynyl)pyridin-2-yl]carbamoyl}-1H-pyrazol-1-yl)hexahydrocyclopenta[c]pyrrole-2(1H)-carboxylate] | 6.57
29 | Cc1cc(C#Cc2ccccc2)cnc1NC(=O)c1c(Cl)cnn1C1CCN(C(=O)CC(F)(F)F)CC1 [Compound 171, 4-chloro-N-(3-methyl-5-(phenylethynyl)pyridin-2-yl)-1-(1-(3,3,3-trifluoropropanoyl)piperidin-4-yl)-1H-pyrazole-5-carboxamide] | 6.57
30 | Cc1cc(C#Cc2ccccc2)cnc1NC(=O)c1c(Cl)cnn1CCC1CCN(C(=O)C2CC2)CC1 [Compound 172, 4-chloro-1-(2-(1-(cyclopropanecarbonyl)piperidin-4-yl)ethyl)-N-(3-methyl-5-(phenylethynyl)pyridin-2-yl)-1H-pyrazole-5-carboxamide] | 6.57

From patent US20240182445A1 (ONO PHARMACEUTICAL CO., LTD., priority 2019, published 2024)
